From PubChem BioAssay AID228 (DTP/NCI, 2004)
“And” between values parts separate entries of the source, which are not always exact repeats. Equal entries are not always repeated. Results filed as inconclusive are left out. Starred links: 1 amine or outer side, 2 acyl side, 3 side chain; linkers in the order of their positions; H or OH if unused. Positions of bridges follow the written chain, without caps; N, C: chain ends. Non-standard residues stand in square brackets, D forms with d. Residues, ends and D or L forms follow the SMILES beside them. Chains are numbered I, II in the order given. Actinocin(9to1) = Cc1c2oc3c(C)ccc(C(=O)[*:1])c3nc-2c(C(=O)[*:2])c(N)c1=O; aThr = C[C@H](O)[C@H](N)C(=O)O; NMeV = CN[C@H](C(=O)O)C(C)C; Sar = CNCC(=O)O

Test system: BDF1 mice, Friend leukemia sc, tumor weight T/C
Assay: NCI In Vivo Anticancer Drug Screen. Data for tumor model Friend Virus Leukemia (Solid) (subcutaneous) in B6D2F1 (BDF1) mice
Details: endpoint: mean tumor weight, schedule: Q01DX011 (ip), higher = larger tumour
Protocol: The antitumor activity of compounds was measured in mice bearing transplantable tumors. Survival or tumor size were measured and the results are expressed as the measurement made in the treated group (T) divided by the measurement made in the vehicle treated control group (C). The tumor model used in this assay is Friend Virus Leukemia (Solid) (subcutaneous) in B6D2F1 (BDF1) mice

**Q.** What does the source list for Clc1ccc(N2CCN(CCCN3CCN(c4cccc(Cl)c4)CC3)CC2)cc1?
**A.** T/C (dose: 7.5 mg/kg/injection, vehicle: carboxymethylcellulose (CMC)): 93 % of control; T/C (dose: 15.0 mg/kg/injection, vehicle: carboxymethylcellulose (CMC)): 85 % of control; T/C (dose: 30.0 mg/kg/injection, vehicle: carboxymethylcellulose (CMC)): 62 % of control

**Q.** With Cc1c2oc3c(C)ccc(C(=O)N[C@@H]4C(=O)N[C@H](C(C)C)C(=O)N5CCC[C@H]5C(=O)N(C)CC(=O)N(C)[C@@H](C(C)C)C(=O)O[C@H]4C)c3nc-2c(C(=O)N[C@@H]2C(=O)N[C@H](C(C)C)C(=O)N3CCC[C@H]3C(=O)N(C)CC(=O)N(C)[C@@H](C(C)C)C(=O)O[C@H]2C)c(N)c1=O (I: [aThr][dV]P[Sar][NMeV] / II: [aThr][dV]P[Sar][NMeV]; ester I:1-I:C, II:1-II:C; linker I:N-II:N via Actinocin(9to1)) as the compound, how does the T/C (dose: 0.03 mg/kg/injection, vehicle: carboxymethylcellulose (CMC)) read?
**A.** Its T/C is 86 % of control.

**Q.** What about the T/C (dose: 0.05 mg/kg/injection, vehicle: carboxymethylcellulose (CMC)) of the same compound?
**A.** Its T/C is 38 % of control and 49 % of control.

**Q.** What about the T/C (dose: 0.08 mg/kg/injection, vehicle: carboxymethylcellulose (CMC)) of the same compound?
**A.** The T/C was 29 % of control.

**Q.** What about the T/C (dose: 6.0 micrograms/kg/injection, vehicle: carboxymethylcellulose (CMC)) of the same compound?
**A.** The T/C was 102 % of control.

**Q.** And the T/C (dose: 13.0 micrograms/kg/injection, vehicle: carboxymethylcellulose (CMC))?
**A.** Its T/C is 93 % of control.

**Q.** And the T/C (dose: 20.0 micrograms/kg/injection, vehicle: carboxymethylcellulose (CMC))?
**A.** Its T/C is 55 % of control.

**Q.** What about the T/C (dose: 33.0 micrograms/kg/injection, vehicle: carboxymethylcellulose (CMC)) of the same compound?
**A.** The T/C was 105 % of control.

**Q.** How did the T/C (dose: 25.0 mg/kg/injection, vehicle: carboxymethylcellulose (CMC)) turn out when CC(=O)Nc1ccc2nc3ccc(NC(C)=O)cc3[n+](-c3ccccc3)c2c1 was run?
**A.** The T/C was 101 % of control.

**Q.** And the T/C (dose: 50.0 mg/kg/injection, vehicle: carboxymethylcellulose (CMC))?
**A.** Its T/C is 112 % of control.

**Q.** What about the T/C (dose: 100.0 mg/kg/injection, vehicle: carboxymethylcellulose (CMC)) of the same compound?
**A.** Its T/C is 92 % of control.

**Q.** For O=CN(O)CC(=O)O, which T/C (dose: 125.0 mg/kg/injection, vehicle: saline) is on record?
**A.** The T/C was 154 % of control.

**Q.** What about the T/C (dose: 250.0 mg/kg/injection, vehicle: saline) of the same compound?
**A.** Its T/C is 196 % of control.

**Q.** And the T/C (dose: 375.0 mg/kg/injection, vehicle: saline)?
**A.** The T/C was 193 % of control.

**Q.** For OCC1OC(Oc2ccc(O)cc2)C(O)C(O)C1O (configuration not stated), which T/C (dose: 25.0 mg/kg/injection, vehicle: saline) is on record?
**A.** The T/C was 84 % of control.

**Q.** What about the T/C (dose: 50.0 mg/kg/injection, vehicle: saline) of the same compound?
**A.** Its T/C is 97 % of control.

**Q.** And the T/C (dose: 100.0 mg/kg/injection, vehicle: saline)?
**A.** The T/C was 97 % of control.

**Q.** And the T/C (dose: 200.0 mg/kg/injection, vehicle: saline)?
**A.** The T/C was 75 % of control.

**Q.** What does the source list for O=C1NC2C(NC(=O)N2Cl)N1Cl (configuration not stated)?
**A.** T/C (dose: 20.0 mg/kg/injection, vehicle: saline): 105 % of control; T/C (dose: 40.0 mg/kg/injection, vehicle: saline): 103 % of control

**Q.** CO[C@@]12[C@H](COC(N)=O)C3=C(C(=O)C(C)=C(N)C3=O)N1C[C@@H]1N[C@@H]12 was tested. Which T/C (dose: 0.06 mg/kg/injection, vehicle: carboxymethylcellulose (CMC)) did it give?
**A.** Its T/C is 48 % of control.

**Q.** What about the T/C (dose: 0.1 mg/kg/injection, vehicle: carboxymethylcellulose (CMC)) of the same compound?
**A.** Its T/C is 66 % of control.

**Q.** What about the T/C (dose: 0.13 mg/kg/injection, vehicle: carboxymethylcellulose (CMC)) of the same compound?
**A.** Its T/C is 56 % of control.

**Q.** And the T/C (dose: 0.2 mg/kg/injection, vehicle: carboxymethylcellulose (CMC))?
**A.** The T/C was 77 % of control.

**Q.** What about the T/C (dose: 0.25 mg/kg/injection, vehicle: carboxymethylcellulose (CMC)) of the same compound?
**A.** The T/C was 35 % of control and 45 % of control.

**Q.** And the T/C (dose: 0.4 mg/kg/injection, vehicle: carboxymethylcellulose (CMC))?
**A.** Its T/C is 100 % of control.

**Q.** What about the T/C (dose: 0.5 mg/kg/injection, vehicle: carboxymethylcellulose (CMC)) of the same compound?
**A.** The T/C was 28 % of control.

**Q.** What about the T/C (dose: 0.8 mg/kg/injection, vehicle: carboxymethylcellulose (CMC)) of the same compound?
**A.** Its T/C is 75 % of control.

**Q.** For CN(C)c1ccc(C(=C(c2ccc(N(C)C)cc2)c2ccc(N(C)C)cc2)c2ccc(N(C)C)cc2)cc1, which T/C (dose: 3.0 mg/kg/injection, vehicle: olive oil, sesame oil, peanut oil) is on record?
**A.** Its T/C is 179 % of control.

**Q.** And the T/C (dose: 6.0 mg/kg/injection, vehicle: olive oil, sesame oil, peanut oil)?
**A.** Its T/C is 178 % of control and 237 % of control.

**Q.** And the T/C (dose: 12.5 mg/kg/injection, vehicle: olive oil, sesame oil, peanut oil)?
**A.** The T/C was 178 % of control.

**Q.** What about the T/C (dose: 50.0 mg/kg/injection, vehicle: olive oil, sesame oil, peanut oil) of the same compound?
**A.** The T/C was 65 % of control and 63 % of control.

**Q.** And the T/C (dose: 200.0 mg/kg/injection, vehicle: olive oil, sesame oil, peanut oil)?
**A.** The T/C was 55 % of control.

**Q.** And the T/C (dose: 300.0 mg/kg/injection, vehicle: olive oil, sesame oil, peanut oil)?
**A.** Its T/C is 82 % of control.

**Q.** And the T/C (dose: 400.0 mg/kg/injection, vehicle: olive oil, sesame oil, peanut oil)?
**A.** The T/C was 80 % of control.
